We go through 46 compounds from US8791267B2, “Biaryl PDE4 inhibitors for treating inflammatory, cardiovascular and CNS disorders” (Decode Genetics EHF, priority 2007, dated 2014).

Molecules are shown by their SMILES. pIC50: −log10 of the molar value. Where a name gives a salt, the structure may show the parent alone. Where only a bound is given, the exact number is not on record here.

In test [1] the target is PDE4 (Homo sapiens, UniProt Q08499). Put plainly: In-vitro assay for PDE4 enzymes, real-time enzyme-coupled spectrophotometric assay (Table 9). To be noted: human PDE4D; activity class, Table 9; read-out: hPDE4D. Type of test: biochemical.
The target of test [2] is PDE4B (Homo sapiens, UniProt Q07343). As to the kind of experiment: In-vitro assay for PDE4 enzymes, real-time enzyme-coupled spectrophotometric assay, PDE4B Activity (Table 10). Type of test: biochemical. The conditions noted are these: human PDE4B (hPDE4B), enzyme-coupled spectrophotometric assay; read-out: PDE4B Activity, hPDE4B.
Chain of PDE4B (Q07343 whole entry): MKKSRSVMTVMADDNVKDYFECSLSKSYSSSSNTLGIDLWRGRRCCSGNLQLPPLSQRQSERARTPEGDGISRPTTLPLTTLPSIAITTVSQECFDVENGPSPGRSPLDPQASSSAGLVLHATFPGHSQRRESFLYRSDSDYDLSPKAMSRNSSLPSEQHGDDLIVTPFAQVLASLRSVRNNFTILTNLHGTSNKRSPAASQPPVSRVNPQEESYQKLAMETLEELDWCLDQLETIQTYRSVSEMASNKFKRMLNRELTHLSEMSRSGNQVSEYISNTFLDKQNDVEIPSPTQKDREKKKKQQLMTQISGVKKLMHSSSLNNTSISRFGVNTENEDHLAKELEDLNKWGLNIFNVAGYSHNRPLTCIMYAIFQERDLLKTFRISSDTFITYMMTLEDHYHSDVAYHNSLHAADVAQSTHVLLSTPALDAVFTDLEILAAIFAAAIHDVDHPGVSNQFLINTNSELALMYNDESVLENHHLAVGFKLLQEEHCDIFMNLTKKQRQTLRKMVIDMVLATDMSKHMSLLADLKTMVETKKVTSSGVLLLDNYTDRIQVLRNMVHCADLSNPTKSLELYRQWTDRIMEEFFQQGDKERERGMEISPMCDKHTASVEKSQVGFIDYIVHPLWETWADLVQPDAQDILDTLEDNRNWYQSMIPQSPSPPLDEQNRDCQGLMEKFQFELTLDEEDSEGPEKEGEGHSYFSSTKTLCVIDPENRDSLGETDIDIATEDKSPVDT

Chain of PDE4 (Q08499 whole entry): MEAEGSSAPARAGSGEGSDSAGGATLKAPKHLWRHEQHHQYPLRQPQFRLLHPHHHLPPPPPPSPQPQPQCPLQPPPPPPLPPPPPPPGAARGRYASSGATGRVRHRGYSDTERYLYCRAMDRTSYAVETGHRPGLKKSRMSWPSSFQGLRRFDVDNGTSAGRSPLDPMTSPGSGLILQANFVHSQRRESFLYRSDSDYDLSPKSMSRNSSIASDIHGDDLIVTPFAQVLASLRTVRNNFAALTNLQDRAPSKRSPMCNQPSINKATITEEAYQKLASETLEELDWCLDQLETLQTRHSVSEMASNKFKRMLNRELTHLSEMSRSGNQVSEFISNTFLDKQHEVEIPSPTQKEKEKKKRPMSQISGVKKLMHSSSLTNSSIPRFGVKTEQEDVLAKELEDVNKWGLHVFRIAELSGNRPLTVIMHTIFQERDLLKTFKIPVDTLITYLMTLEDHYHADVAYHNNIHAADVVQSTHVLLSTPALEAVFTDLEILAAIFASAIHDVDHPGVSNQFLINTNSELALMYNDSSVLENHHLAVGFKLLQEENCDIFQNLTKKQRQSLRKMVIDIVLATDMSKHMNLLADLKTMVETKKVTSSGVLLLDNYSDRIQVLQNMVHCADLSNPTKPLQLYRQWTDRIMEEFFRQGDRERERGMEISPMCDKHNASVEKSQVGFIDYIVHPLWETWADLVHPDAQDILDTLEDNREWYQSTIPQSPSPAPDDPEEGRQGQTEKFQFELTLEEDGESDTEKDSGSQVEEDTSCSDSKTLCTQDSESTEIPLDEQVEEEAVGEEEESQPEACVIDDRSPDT

In the case of `COc1ccc(CN2CCCC2=O)cc1-c1ccc(F)c(F)c1` [P-223, 1-(3′,4′-difluoro-6-methoxy-biphenyl-3-ylmethyl)-pyrrolidin-2-one], the pIC50 in test [1] and in test [2] was 4.70 to 5.30 in each case.

Regarding `COc1ccc(COc2ccccn2)cc1-c1cccc([N+](=O)[O-])c1` [P-224, 2-(6-Methoxy-3′-nitro-biphenyl-3-ylmethoxy)-pyridine], the pIC50 in test [1] and in test [2] was 4.70 to 5.30 in each case.

`COc1ccc(Cc2ccc(OC)c(-c3cccc(Cl)c3)c2F)cn1` [P-225]: the pIC50 in test [1] and in test [2] was greater than 5.30 in each case.

Take `COc1ccc(Cc2ccc(Cl)nc2)c(F)c1-c1cccc(Cl)c1` [P-226]: the pIC50 in test [1] is greater than 5.30; in test [2], 4.70 to 5.30.

Consider `COc1ccc(Cc2ccc(NS(C)(=O)=O)cc2)c(F)c1-c1cccc(Cl)c1` [P-227], for which the pIC50 in test [1] and in test [2] was greater than 5.30 each time.

As for `COc1ccc(Cc2ccc(NC(C)=O)cc2)c(F)c1-c1cccc(Cl)c1` [P-228], the pIC50 in test [1] and in test [2] was greater than 5.30 in each case.

For `COc1ccc(CN2CCCC2=O)c(O)c1-c1cccc([N+](=O)[O-])c1` [P-229], the pIC50 in test [1] and in test [2] was greater than 5.30 each time.

In the case of `COc1ccc(Cc2cccc(NC(C)=O)c2)c(F)c1-c1cccc(Cl)c1` [P-233], the pIC50 in test [1] and in test [2] was greater than 5.30 each time.

`COc1ccc(Cc2cccc(N)c2)c(F)c1-c1cccc(Cl)c1` [P-234]: the pIC50 in test [1] and in test [2] was greater than 5.30 throughout.

Turning to `COc1ccc(Cn2c(N)cccc2=O)cc1-c1cccc([N+](=O)[O-])c1` [P-236, 6-Amino-1-(6-methoxy-3′-nitro-biphenyl-3-ylmethyl)-1H-pyridin-2-one], the pIC50 in test [1] is 4.40 to 4.70; in test [2], 4.40 to 4.68.

As for `COc1ccc(Cc2ccc(CNC(N)=O)cc2)c(F)c1-c1cccc([N+](=O)[O-])c1` [P-237], the pIC50 in test [1] and in test [2] was greater than 5.30 in each case.

Consider `COc1ccc(Cc2ccc(C(N)=O)cc2)cc1-c1cccc(Cl)c1` [P-240, 4-(3′-Chloro-6-methoxy-biphenyl-3-ylmethyl)-benzamide], for which the values for the pIC50 in test [1] and in test [2] were greater than 5.30 and 4.70 to 5.30, respectively.

For `COc1ccc(Cc2ccc3c(c2)OCO3)c(F)c1-c1cccc(Cl)c1` [P-242], the pIC50 in test [1] and in test [2] was greater than 5.30 each time.

With `COc1ccc(Cc2ccc(NC(N)=O)cc2)c(F)c1-c1cccc(Cl)c1` [P-243, [4-(3′-chloro-2-fluoro-6-methoxy-biphenyl-3-ylmethyl)-phenyl]-urea], the pIC50 in test [1] and in test [2] was greater than 5.30 throughout.

Regarding `COc1ccc(CCn2ccccc2=O)cc1-c1cccc([N+](=O)[O-])c1` [P-244, 1-[2-(6-Methoxy-3′-nitro-biphenyl-3-yl)-ethyl]-1H-pyridin-2-one], the pIC50 in test [1] and in test [2] was greater than 5.30 in each case.

For the compound `COc1ccc(CN2CCCC2=O)cc1-c1cccc(SC)c1` [P-245, 1-(6-methoxy-3′-methylsulfanyl-biphenyl-3-ylmethyl)-pyrrolidin-2-one], the pIC50 is 4.70 to 5.30 in test [1] and greater than 5.30 in test [2].

As for `COc1ccc(Cc2ccc(NS(C)(=O)=O)cc2)cc1-c1cccc(Cl)c1` [P-246, N-[4-(3′-Chloro-6-methoxy-biphenyl-3-ylmethyl)-phenyl]-methanesulfonamide], the pIC50 in test [1] was 4.70 to 5.30; in test [2], greater than 5.30.

In the case of `COc1ccc(CN2C[C@@H](O)CC2=O)cc1-c1cccc([N+](=O)[O-])c1` [P-248, (S)-4-Hydroxy-1-(6-methoxy-3′-nitro-biphenyl-3-ylmethyl)-pyrrolidin-2-one], the pIC50 in test [1] and in test [2] was greater than 5.30 in each case.

`COc1ccc(Cc2ccc(NS(C)(=O)=O)cc2)c(F)c1-c1cccc(C(C)=O)c1` [P-249]: the pIC50 in test [1] and in test [2] was greater than 5.30 each time.

For `CCNC(=O)Nc1ccc(Cc2ccc(OC)c(-c3cccc(Cl)c3)c2F)cc1` [P-250], the pIC50 in test [1] and in test [2] was greater than 5.30 throughout.

For the compound `COc1ccc(CNS(=O)(=O)c2ccc(NC(C)=O)cc2)c(F)c1-c1cccc(Cl)c1` [P-251, N-{4-[(3′-Chloro-2-fluoro-6-methoxy-biphenyl-3-ylmethyl)-sulfamoyl]-phenyl}-acetamide], the pIC50 in test [1] and in test [2] was greater than 5.30 in each case.

As to `COc1ccc(Cc2ccc(N)nc2)c(F)c1-c1cccc(Cl)c1` [P-252, 5-(3′-Chloro-2-fluoro-6-methoxy-biphenyl-3-ylmethyl)-pyridin-2-ylamine], the pIC50 in test [1] and in test [2] was greater than 5.30 throughout.

On to `COc1ccc(Oc2ccc(NS(C)(=O)=O)cc2)c(F)c1-c1cccc(Cl)c1` [P-254, N-[4-(3′-Chloro-2-fluoro-6-methoxy-biphenyl-3-yloxy)-phenyl]-methanesulfonamide], for which the pIC50 in test [1] was 4.70 to 5.30; in test [2] it was greater than 5.30.

For the compound `COc1ccc(Cc2cccc(N)c2)cc1-c1cccc(Cl)c1` [P-255, 3-(3′-Chloro-6-methoxy-biphenyl-3-ylmethyl)-phenylamine], the pIC50 in test [1] and in test [2] was greater than 5.30 throughout.

As for `COc1ccc(Cc2ccc(N)c(O)c2)c(F)c1-c1cccc(Cl)c1` [P-256], the pIC50 is greater than 5.30 in test [1] and 4.70 to 5.30 in test [2].

For the compound `COc1ccc(Cc2ccc(NS(C)(=O)=O)nc2)c(F)c1-c1cccc(Cl)c1` [P-258, N-[5-(3′-chloro-2-fluoro-6-methoxy-biphenyl-3-ylmethyl)-pyridin-2-yl]-methanesulfonamide], the pIC50 in test [1] and in test [2] was greater than 5.30 each time.

As to `COc1ccc(Cc2ccc(NC(N)=O)nc2)c(F)c1-c1cccc(Cl)c1` [P-259], the pIC50 in test [1] and in test [2] was greater than 5.30 in each case.

Regarding `COc1ccc(Nc2ccc(N)cc2)cc1-c1cccc(C(C)=O)c1` [P-260, 1-[5′-(4-Amino-phenylamino)-2′-methoxy-biphenyl-3-yl]-ethanone hydrochloride], the pIC50 is greater than 5.30 in test [1] and 4.70 to 5.30 in test [2].

For `COc1ccc(Cc2ccc(N)cc2)c(F)c1-c1cccc(C(C)=O)c1` [P-261, 1-[3′-(4-Amino-benzyl)-2′-fluoro-6′-methoxy-biphenyl-3-yl]-ethanone; hydrochloride], the pIC50 in test [1] and in test [2] was greater than 5.30 each time.

With `COc1ccc(Cc2ccc(NC(N)=O)c(O)c2)c(F)c1-c1cccc(Cl)c1` [P-262], the pIC50 in test [1] and in test [2] was greater than 5.30 each time.

Take `COc1ccc(Cc2ccc3[nH]c(=O)oc3c2)c(F)c1-c1cccc(Cl)c1` [P-263]: the pIC50 in test [1] and in test [2] was greater than 5.30 in each case.

`COc1ccc(Cc2ccc(NS(C)(=O)=O)c(O)c2)c(F)c1-c1cccc(Cl)c1` [P-264]: the pIC50 in test [1] is greater than 5.30; in test [2], 4.70 to 5.30.

As to `COc1ccc(Cc2ccc(S(N)(=O)=O)cc2)cc1-c1cccc(Cl)c1` [P-266, 4-(3′-Chloro-6-methoxy-biphenyl-3-ylmethyl)-benzenesulfonamide], the pIC50 in test [1] and in test [2] was greater than 5.30 each time.

For `COc1ccc(Nc2ccc(NS(C)(=O)=O)cc2)cc1-c1cccc(C(C)=O)c1` [P-267, N-[4-(3′-Acetyl-6-methoxy-biphenyl-3-ylamino)-phenyl]-methanesulfonamide], the pIC50 in test [1] and in test [2] was greater than 5.30 each time.

Regarding `COc1ccc(Nc2ccc(NC(N)=O)cc2)cc1-c1cccc(C(C)=O)c1` [P-268, [4-(3′-acetyl-6-methoxy-biphenyl-3-ylamino)-phenyl]-urea], the figures for the pIC50 in test [1] and in test [2] were greater than 5.30 and 4.70 to 5.30, respectively.

Take `COc1ccc(Cc2ccc(NC(N)=O)cc2)c(F)c1-c1cccc(C(C)=O)c1` [P-269, [4-(3′-Acetyl-2-fluoro-6-methoxy-biphenyl-3-ylmethyl)-phenyl]urea]: the pIC50 in test [1] and in test [2] was greater than 5.30 in each case.

Take `COc1ccc(Cc2cccc(NC(N)=O)c2)cc1-c1cccc(Cl)c1` [P-270, [3-(3′-Chloro-6-methoxy-biphenyl-3-ylmethyl)-phenyl]-urea]: the pIC50 was greater than 5.30 in test [1] and 4.70 to 5.30 in test [2].

With `COc1ccc(Cc2ccc(C#N)c(F)c2)c(F)c1-c1cccc(Cl)c1` [P-274], the pIC50 in test [1] and in test [2] was greater than 5.30 each time.

On to `COc1ccc(Cc2ccc(CN)c(F)c2)c(F)c1-c1cccc(Cl)c1` [P-275], for which the pIC50 in test [1] is greater than 5.30; in test [2] it was 4.70 to 5.30.

`COc1ccc(Cc2ccc(N)nc2)c(F)c1-c1cccc(C(C)=O)c1` [P-277, 1-[3′-(6-Amino-pyridin-3-ylmethyl)-2′-fluoro-6′-methoxy-biphenyl-3-yl]-ethanone]: the pIC50 in test [1] and in test [2] was greater than 5.30 in each case.

`COc1ccc(Cc2cnc(N)nc2)c(F)c1-c1cccc(Cl)c1` [P-278]: the pIC50 in test [1] and in test [2] was greater than 5.30 each time.

Consider `CCOc1ccc(Cc2ccc(NC(N)=O)nc2)c(F)c1-c1cccc(Cl)c1` [P-279], for which the pIC50 in test [1] and in test [2] was greater than 5.30 throughout.

Regarding `COc1ccc(Nc2ccc(N)cc2)cc1-c1cccc(Cl)c1` [P-280, N-(3′-Chloro-6-methoxy-biphenyl-3-yl)-benzene-1,4-diamine; hydrochloride], the pIC50 in test [1] and in test [2] was greater than 5.30 in each case.

As to `COc1ccc(Cc2cnc(N)nc2)c(F)c1-c1cccc(C(C)=O)c1` [P-281, 1-[3′-(2-Amino-pyrimidin-5-ylmethyl)-2′-fluoro-6′-methoxy-biphenyl-3-yl]-ethanone hydrochloride], the pIC50 in test [1] and in test [2] was greater than 5.30 throughout.

Consider `COc1ccc(Cc2cccc(C(N)=O)c2)cc1-c1cccc(Cl)c1` [P-282, 3-(3′-Chloro-6-methoxy-biphenyl-3-ylmethyl)-benzamide], for which the pIC50 in test [1] was greater than 5.30; in test [2] it was 4.70 to 5.30.

`COc1ccc(Oc2ccc(N)cc2)c(F)c1-c1cccc(C(C)=O)c1` [P-283, 4-(3′-Acetyl-2-fluoro-6-methoxy-biphenyl-3-yloxy)-phenyl-amine hydrochloride salt]: the pIC50 in test [1] and in test [2] was greater than 5.30 throughout.
